In patent publication US12037583B2, “Compositions and methods for immunooncology” (Novartis AG, priority 2015, dated 2024):

The substances below were run on PDCD1 (assay: NGS editing of PDCD1 by dgRNA in HEK cells stably expressing Cas9). Conditions: at least 3 experiments.
Format: cell-based, human
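Also: dgRNA lipofected into Cas9-expressing HEK cells, lysed after 24 h, target amplicon sequenced, editing = reads carrying insertions or deletions as percent of all reads including wild type.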

Row | Substance | HEK (NGS) % Editing Mean
1 | CR000835: dgRNA targeting domain to PDCD1 (guide GCCCUGGCCAGUCGUCUGGG; targeting domain within dual guide RNA, chemistry not given here, further chemistry not given here; listed as Homo sapiens) | 69%
2 | CR000836: dgRNA targeting domain to PDCD1 (guide CACCGCCCAGACGACUGGCC; targeting domain within dual guide RNA, chemistry not given here, further chemistry not given here; listed as Homo sapiens) | 5%
3 | CR000840: dgRNA targeting domain to PDCD1 (guide GGGCGGUGCUACAACUGGGC; targeting domain within dual guide RNA, chemistry not given here, further chemistry not given here; listed as Homo sapiens) | 59%
4 | CR000841: dgRNA targeting domain to PDCD1 (guide CGGUGCUACAACUGGGCUGG; targeting domain within dual guide RNA, chemistry not given here, further chemistry not given here; listed as Homo sapiens) | 19%
5 | CR000842: dgRNA targeting domain to PDCD1 (guide CACCUACCUAAGAACCAUCC; targeting domain within dual guide RNA, chemistry not given here, further chemistry not given here; listed as Homo sapiens) | 40%
6 | CR000843: dgRNA targeting domain to PDCD1 (guide GAGAAGGUGGGGGGGUUCCA; targeting domain within dual guide RNA, chemistry not given here, further chemistry not given here; listed as Homo sapiens) | 8%
7 | CR000844: dgRNA targeting domain to PDCD1 (guide CGGUCACCACGAGCAGGGCU; targeting domain within dual guide RNA, chemistry not given here, further chemistry not given here; listed as Homo sapiens) | 25%
8 | CR000845: dgRNA targeting domain to PDCD1 (guide UCGGUCACCACGAGCAGGGC; targeting domain within dual guide RNA, chemistry not given here, further chemistry not given here; listed as Homo sapiens) | 21%
9 | CR000846: dgRNA targeting domain to PDCD1 (guide GCCCUGCUCGUGGUGACCGA; targeting domain within dual guide RNA, chemistry not given here, further chemistry not given here; listed as Homo sapiens) | 46%
10 | CR000847: dgRNA targeting domain to PDCD1 (guide CCCUUCGGUCACCACGAGCA; targeting domain within dual guide RNA, chemistry not given here, further chemistry not given here; listed as Homo sapiens) | 77%
11 | CR000848: dgRNA targeting domain to PDCD1 (guide CCCUGCUCGUGGUGACCGAA; targeting domain within dual guide RNA, chemistry not given here, further chemistry not given here; listed as Homo sapiens) | 65%
12 | CR000849: dgRNA targeting domain to PDCD1 (guide CCCCUUCGGUCACCACGAGC; targeting domain within dual guide RNA, chemistry not given here, further chemistry not given here; listed as Homo sapiens) | 29%
13 | CR000850: gRNA targeting domain to PDCD1, CCUGCUCGUGGUGACCGAAG (SEQ ID NO: 5746) (targeting domain within guide RNA, chemistry not given here, further chemistry not given here; listed as Homo sapiens) | 55%
14 | CR000851: dgRNA targeting domain to PDCD1 (guide GAAGGUGGCGUUGUCCCCUU; targeting domain within dual guide RNA, chemistry not given here, further chemistry not given here; listed as Homo sapiens) | 4%
15 | CR000852: dgRNA targeting domain to PDCD1 (guide GUUGGAGAAGCUGCAGGUGA; targeting domain within dual guide RNA, chemistry not given here, further chemistry not given here; listed as Homo sapiens) | 72%
16 | CR000853: gRNA targeting domain to PDCD1, CACGAAGCUCUCCGAUGUGU (SEQ ID NO: 5749) (targeting domain within guide RNA, chemistry not given here, further chemistry not given here; listed as Homo sapiens) | 33%

Row | Substance | HEK (NGS) % Editing Mean
17 | CR000854: dgRNA targeting domain to PDCD1 (guide CGGAGAGCUUCGUGCUAAAC; targeting domain within dual guide RNA, chemistry not given here, further chemistry not given here; listed as Homo sapiens) | 24%
18 | CR000855: dgRNA targeting domain to PDCD1 (guide UCUGGUUGCUGGGGCUCAUG; targeting domain within dual guide RNA, chemistry not given here, further chemistry not given here; listed as Homo sapiens) | 61%
19 | CR000857: dgRNA targeting domain to PDCD1 (guide AGCUUGUCCGUCUGGUUGCU; targeting domain within dual guide RNA, chemistry not given here, further chemistry not given here; listed as Homo sapiens) | 1%
20 | CR000858: dgRNA targeting domain to PDCD1 (guide CAGCUUGUCCGUCUGGUUGC; targeting domain within dual guide RNA, chemistry not given here, further chemistry not given here; listed as Homo sapiens) | 16%
21 | CR000863: dgRNA targeting domain to PDCD1 (guide CCGGGCUGGCUGCGGUCCUC; targeting domain within dual guide RNA, chemistry not given here, further chemistry not given here; listed as Homo sapiens) | 40%
22 | CR000864: dgRNA targeting domain to PDCD1 (guide CCCGAGGACCGCAGCCAGCC; targeting domain within dual guide RNA, chemistry not given here, further chemistry not given here; listed as Homo sapiens) | 7%
23 | CR000865: dgRNA targeting domain to PDCD1 (guide GCCGGGCUGGCUGCGGUCCU; targeting domain within dual guide RNA, chemistry not given here, further chemistry not given here; listed as Homo sapiens) | 4%
24 | CR000866: dgRNA targeting domain to PDCD1 (guide CGGAAGCGGCAGUCCUGGCC; targeting domain within dual guide RNA, chemistry not given here, further chemistry not given here; listed as Homo sapiens) | 4%
25 | CR000867: dgRNA targeting domain to PDCD1 (guide ACGGAAGCGGCAGUCCUGGC; targeting domain within dual guide RNA, chemistry not given here, further chemistry not given here; listed as Homo sapiens) | 24%
26 | CR000868: gRNA targeting domain to PDCD1, UGACACGGAAGCGGCAGUCC (SEQ ID NO: 5764) (targeting domain within guide RNA, chemistry not given here, further chemistry not given here; listed as Homo sapiens) | 47%
27 | CR000869: dgRNA targeting domain to PDCD1 (guide GCAGUUGUGUGACACGGAAG; targeting domain within dual guide RNA, chemistry not given here, further chemistry not given here; listed as Homo sapiens) | 55%
28 | CR000870: dgRNA targeting domain to PDCD1 (guide CGUGUCACACAACUGCCCAA; targeting domain within dual guide RNA, chemistry not given here, further chemistry not given here; listed as Homo sapiens) | 66%
29 | CR000871: dgRNA targeting domain to PDCD1 (guide GUGUCACACAACUGCCCAAC; targeting domain within dual guide RNA, chemistry not given here, further chemistry not given here; listed as Homo sapiens) | 57%
30 | CR000872: dgRNA targeting domain to PDCD1 (guide AUGUGGAAGUCACGCCCGUU; targeting domain within dual guide RNA, chemistry not given here, further chemistry not given here; listed as Homo sapiens) | 26%
31 | CR000874: dgRNA targeting domain to PDCD1 (guide GCGUGACUUCCACAUGAGCG; targeting domain within dual guide RNA, chemistry not given here, further chemistry not given here; listed as Homo sapiens) | 47%
